Broadly, the inhibition is how much of the control response was suppressed. What is called IC50 is the concentration that inhibits the measured activity by half.

The source made the active and inactive calls. The calls are words filed in the database; no cut-off is given here.

The target of assay [1] is T1, Tyrosine-protein phosphatase non-receptor type 1 (Homo sapiens) (UniProt P18031).
T1 sequence (whole entry): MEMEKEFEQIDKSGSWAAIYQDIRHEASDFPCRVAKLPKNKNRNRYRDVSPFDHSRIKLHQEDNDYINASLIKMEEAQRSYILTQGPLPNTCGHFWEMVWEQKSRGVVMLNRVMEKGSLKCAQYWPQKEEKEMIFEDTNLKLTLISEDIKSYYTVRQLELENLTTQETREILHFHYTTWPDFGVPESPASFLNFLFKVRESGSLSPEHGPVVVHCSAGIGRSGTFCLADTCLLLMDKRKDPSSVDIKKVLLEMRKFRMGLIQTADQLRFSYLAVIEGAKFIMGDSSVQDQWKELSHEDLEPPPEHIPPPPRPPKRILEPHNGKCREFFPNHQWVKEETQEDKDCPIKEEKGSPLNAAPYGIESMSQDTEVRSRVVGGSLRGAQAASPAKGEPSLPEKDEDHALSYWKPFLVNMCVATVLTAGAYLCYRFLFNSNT
Kind of assay: Inhibition of PTP1B at 100 uM.

Assay [2] has as its system Mus musculus. Kind of assay: Antihyperglycemic in leptin receptor deficient mouse C57BL/KsBom-db assessed as blood glucose lowering activity at 100 mg/kg after 10 days by oral glucose tolerance test. It is filed as functional.
The subject of assay [3] is Rattus norvegicus. Description: Antihyperglycemic activity in sucrose challenged streptozotocin-induced diabetic Sprague-Dawley rat model assessed as reduction in blood glucose level at 100 mg/kg after 24 hrs. It is filed as functional. Also on record: scale not given: the % may be the effect or the level left.
For assay [4], the system named is Rattus norvegicus. Kind of assay: Antidyslipidemic activity against triton WR-1339-induced hyperlipidemia in Charles Foster rat assessed as reduction in plasma total cholesterol level at 100 mg/kg, po after 18 hrs. The class given is functional.
Assay [5] in a line: Inhibition of glycogen phosphorylase assessed as inorganic phosphate release at 100 uM.
The subject of assay [6] is Rattus norvegicus. Kind of assay: Antihyperglycemic activity in sucrose loaded Charles Foster/Wistar rat model assessed as reduction in blood glucose level at 100 mg/kg. It is filed as functional. Also on record: scale not given: the % may be the effect or the level left.
Assay [7] relates to Rattus norvegicus. Description: Antidyslipidemic activity against triton WR-1339-induced hyperlipidemia in Charles Foster rat assessed as reduction in plasma triglyceride level at 100 mg/kg, po after 18 hrs. The class given is functional.
In assay [8] the target is T2, Glucose-6-phosphatase catalytic subunit 1 (Homo sapiens) (UniProt P35575).
T2 sequence (whole entry): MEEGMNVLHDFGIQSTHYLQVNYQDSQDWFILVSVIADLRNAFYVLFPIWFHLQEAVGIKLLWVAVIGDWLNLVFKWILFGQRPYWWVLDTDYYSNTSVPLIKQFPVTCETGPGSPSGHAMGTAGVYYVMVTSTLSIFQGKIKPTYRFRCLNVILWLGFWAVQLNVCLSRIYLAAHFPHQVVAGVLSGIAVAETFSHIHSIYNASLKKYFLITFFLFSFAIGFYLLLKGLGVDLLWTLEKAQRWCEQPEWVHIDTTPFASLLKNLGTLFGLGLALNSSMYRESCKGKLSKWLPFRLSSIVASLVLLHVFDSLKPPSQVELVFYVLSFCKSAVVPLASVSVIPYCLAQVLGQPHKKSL
Kind of assay: Inhibition of glucose 6 phosphatase assessed as inorganic phosphate release at 100 uM.

In assay [9] the target is Maltase-glucoamylase (Homo sapiens) (UniProt O43451). Description: Inhibition of alpha-glucosidase at 100 uM.
Chain of Maltase-glucoamylase (Homo sapiens) (O43451 whole entry, looked up): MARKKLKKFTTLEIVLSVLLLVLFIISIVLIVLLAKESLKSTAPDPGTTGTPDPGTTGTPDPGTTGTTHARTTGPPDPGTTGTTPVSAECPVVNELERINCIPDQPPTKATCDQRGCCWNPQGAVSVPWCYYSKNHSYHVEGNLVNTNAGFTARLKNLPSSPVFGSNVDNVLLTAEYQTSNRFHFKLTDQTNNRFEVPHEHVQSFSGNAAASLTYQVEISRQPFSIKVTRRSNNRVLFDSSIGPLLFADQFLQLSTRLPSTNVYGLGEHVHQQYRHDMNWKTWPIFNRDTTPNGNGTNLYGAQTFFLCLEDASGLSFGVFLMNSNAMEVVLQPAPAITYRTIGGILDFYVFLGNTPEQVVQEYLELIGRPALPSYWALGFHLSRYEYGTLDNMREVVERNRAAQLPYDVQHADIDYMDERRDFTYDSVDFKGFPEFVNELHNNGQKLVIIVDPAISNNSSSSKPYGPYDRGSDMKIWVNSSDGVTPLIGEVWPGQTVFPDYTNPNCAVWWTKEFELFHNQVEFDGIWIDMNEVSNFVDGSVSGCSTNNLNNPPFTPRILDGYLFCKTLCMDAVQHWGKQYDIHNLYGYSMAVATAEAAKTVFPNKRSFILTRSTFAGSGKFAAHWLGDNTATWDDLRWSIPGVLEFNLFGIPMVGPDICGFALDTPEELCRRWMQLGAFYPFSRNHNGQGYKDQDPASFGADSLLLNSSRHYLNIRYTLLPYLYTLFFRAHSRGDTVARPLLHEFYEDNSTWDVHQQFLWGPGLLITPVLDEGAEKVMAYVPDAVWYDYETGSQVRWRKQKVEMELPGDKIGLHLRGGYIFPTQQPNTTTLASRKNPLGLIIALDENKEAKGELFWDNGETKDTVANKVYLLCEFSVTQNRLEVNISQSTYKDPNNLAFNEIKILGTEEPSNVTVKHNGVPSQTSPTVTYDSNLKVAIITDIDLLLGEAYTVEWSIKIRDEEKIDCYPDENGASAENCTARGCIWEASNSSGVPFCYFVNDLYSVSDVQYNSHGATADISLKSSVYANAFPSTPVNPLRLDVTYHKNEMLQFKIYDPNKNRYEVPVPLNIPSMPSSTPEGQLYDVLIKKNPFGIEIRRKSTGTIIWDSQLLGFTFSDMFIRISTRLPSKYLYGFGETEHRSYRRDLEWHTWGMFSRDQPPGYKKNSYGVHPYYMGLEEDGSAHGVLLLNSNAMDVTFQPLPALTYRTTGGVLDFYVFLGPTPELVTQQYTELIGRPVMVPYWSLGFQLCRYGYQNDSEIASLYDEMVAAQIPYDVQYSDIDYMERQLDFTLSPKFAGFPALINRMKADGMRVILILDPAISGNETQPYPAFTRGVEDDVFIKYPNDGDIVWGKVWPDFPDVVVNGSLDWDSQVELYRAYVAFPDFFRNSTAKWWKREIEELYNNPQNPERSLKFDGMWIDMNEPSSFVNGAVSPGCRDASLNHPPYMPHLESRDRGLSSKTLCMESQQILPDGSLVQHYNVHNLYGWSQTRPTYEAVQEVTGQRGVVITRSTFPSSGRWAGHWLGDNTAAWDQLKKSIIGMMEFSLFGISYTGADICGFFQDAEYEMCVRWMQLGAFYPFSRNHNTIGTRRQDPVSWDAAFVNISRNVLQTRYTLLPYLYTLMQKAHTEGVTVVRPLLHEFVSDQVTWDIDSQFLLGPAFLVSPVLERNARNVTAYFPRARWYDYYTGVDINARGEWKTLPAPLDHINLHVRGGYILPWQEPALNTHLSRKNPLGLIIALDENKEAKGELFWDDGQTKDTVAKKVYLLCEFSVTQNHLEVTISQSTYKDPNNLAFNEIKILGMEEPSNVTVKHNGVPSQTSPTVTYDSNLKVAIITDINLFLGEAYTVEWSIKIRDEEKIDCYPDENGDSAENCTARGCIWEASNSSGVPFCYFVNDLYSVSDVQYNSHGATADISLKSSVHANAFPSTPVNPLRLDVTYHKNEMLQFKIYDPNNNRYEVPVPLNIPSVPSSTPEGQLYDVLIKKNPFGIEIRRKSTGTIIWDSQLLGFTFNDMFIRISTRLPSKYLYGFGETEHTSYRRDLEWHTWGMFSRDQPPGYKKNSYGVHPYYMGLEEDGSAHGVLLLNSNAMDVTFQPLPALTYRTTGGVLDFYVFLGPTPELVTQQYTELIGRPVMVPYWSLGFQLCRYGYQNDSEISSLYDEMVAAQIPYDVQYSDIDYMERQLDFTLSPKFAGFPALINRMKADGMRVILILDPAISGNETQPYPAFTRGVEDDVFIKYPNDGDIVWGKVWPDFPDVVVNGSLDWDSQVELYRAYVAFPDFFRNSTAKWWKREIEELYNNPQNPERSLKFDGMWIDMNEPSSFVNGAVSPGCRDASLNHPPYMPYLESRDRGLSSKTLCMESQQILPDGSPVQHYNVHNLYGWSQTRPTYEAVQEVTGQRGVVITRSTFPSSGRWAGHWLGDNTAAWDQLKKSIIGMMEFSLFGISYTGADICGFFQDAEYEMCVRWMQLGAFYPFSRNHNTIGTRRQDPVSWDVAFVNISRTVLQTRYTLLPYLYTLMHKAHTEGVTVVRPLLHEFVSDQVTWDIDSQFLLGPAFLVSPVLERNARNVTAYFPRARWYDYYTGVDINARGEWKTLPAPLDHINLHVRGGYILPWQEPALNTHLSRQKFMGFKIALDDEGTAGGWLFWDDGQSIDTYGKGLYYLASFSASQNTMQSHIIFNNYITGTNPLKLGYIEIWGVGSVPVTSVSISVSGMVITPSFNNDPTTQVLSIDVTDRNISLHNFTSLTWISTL
Assay [10] relates to Rattus norvegicus. Kind of assay: Antidyslipidemic activity against triton WR-1339-induced hyperlipidemia in Charles Foster rat assessed as reduction in plasma phospholipid level at 100 mg/kg, po after 18 hrs. The class given is functional.
Assay [11] addresses Dipeptidyl peptidase 4 (Homo sapiens) (UniProt P27487). Kind of assay: Inhibition of DPP4 at 100 uM.
In assay [12] the target is T3, Tyrosine-protein phosphatase non-receptor type 1 (Homo sapiens, UniProt P18031).
T3 sequence (P18031 whole entry): T1 sequence (whole entry)
Kind of assay: Inhibition of PTP1B.

Assay [13] has as its system Mus musculus. Description: Antihyperglycemic in leptin receptor deficient mouse C57BL/KsBom-db assessed as blood glucose lowering activity at 100 mg/kg after 5 days by oral glucose tolerance test. The class given is functional.

Chain of Dipeptidyl peptidase 4 (Homo sapiens) (P27487 whole entry, looked up): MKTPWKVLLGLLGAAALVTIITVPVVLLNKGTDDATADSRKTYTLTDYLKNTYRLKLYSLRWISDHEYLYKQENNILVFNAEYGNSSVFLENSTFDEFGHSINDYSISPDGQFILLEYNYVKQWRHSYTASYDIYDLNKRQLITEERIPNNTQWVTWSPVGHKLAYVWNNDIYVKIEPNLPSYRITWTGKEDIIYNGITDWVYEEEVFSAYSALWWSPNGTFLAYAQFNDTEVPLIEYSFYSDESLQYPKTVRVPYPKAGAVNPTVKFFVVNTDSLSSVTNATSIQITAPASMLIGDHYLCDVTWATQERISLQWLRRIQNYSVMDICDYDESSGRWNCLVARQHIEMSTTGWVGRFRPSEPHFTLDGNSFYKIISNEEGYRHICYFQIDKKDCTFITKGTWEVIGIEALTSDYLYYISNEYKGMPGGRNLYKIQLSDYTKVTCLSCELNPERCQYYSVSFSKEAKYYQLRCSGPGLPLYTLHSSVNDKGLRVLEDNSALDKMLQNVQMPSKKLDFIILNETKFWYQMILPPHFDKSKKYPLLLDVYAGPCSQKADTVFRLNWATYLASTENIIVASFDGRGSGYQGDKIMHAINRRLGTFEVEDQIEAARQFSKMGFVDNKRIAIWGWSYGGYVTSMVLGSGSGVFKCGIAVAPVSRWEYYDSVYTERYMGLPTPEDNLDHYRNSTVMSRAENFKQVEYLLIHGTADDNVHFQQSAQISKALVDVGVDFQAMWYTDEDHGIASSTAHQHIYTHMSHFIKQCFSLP

As to `CCOCC1(CN2CCCCC2)COc2ccc3c(C)cc(=O)oc3c2C1=O` (stereo not drawn), the inhibition in assay [1] came to 88.5%; in assay [5], 8.5%; in assay [8], 6.56%; in assay [11], 12.6%. Moreover, the Activity in assay [2] is listed as 42%; in assay [3] it was 37.7%; in assay [6], 38.1%; in assay [13], 19.5%. Besides, the result in assay [4], in assay [7] and in assay [10] was Active. Moreover, the inhibition entry in assay [9] was “inactive”. Further, the IC50 in assay [12] was found to be 36.2 µM.
In the case of `CCCCN(CCCC)CC1(CN(CCCC)CCCC)COc2ccc3c(C)cc(=O)oc3c2C1=O`, the inhibition in [1] came out at 43.6%; in assay [5] it was 11.1%; in [8], 20.4%; in [11] it was 11.4%. Also, the inhibition entry in assay [9] was “inactive”.
On the same counts, the results for `Cc1cc(=O)oc2c3c(ccc12)OCC(CN1CCCCC1)(CN1CCCCC1)C3=O` are 33.3%, 17.2%, 13.8%, 6.8% and 7.3%.
Turning to `Cc1cc(=O)oc2c3c(ccc12)OCC(CO)(CN1CCOCC1)C3=O` (stereo not drawn), the inhibition was determined as 83.3% in assay [1], 3.5% in [8], 34.3% in [9] and 12% in [11]. The figures for the Activity in assay [3] and in [6] were 25.3% and 28.2%, respectively. For the same compound, the outcome in assay [4], in assay [7] and in [10] was Active. Also, the inhibition entry in assay [5] is “inactive”. The compound also yielded an IC50 in [12] of 52.4 µM.
Take `CCCCN(CCCC)CC1(COCC)COc2ccc3c(C)cc(=O)oc3c2C1=O` (stereo not drawn): the inhibition in [1] is 80.5%; in [5] it was 8.7%; in assay [8], 11.1%; in [9], 27.9%. The Activity was found to be 24.4% in assay [3] and 30.6% in assay [6]. Further, the result in assay [4], in [7] and in assay [10] was Active. The inhibition result in assay [11] was “inactive”. The compound further showed an IC50 in assay [12] of 40.5 µM.
As to `Cc1cc(=O)oc2c3c(ccc12)OCC(CO)(CN1CCCC1)C3=O` (stereo not drawn), the inhibition turned out to be 74.6% in [1]; 8.3% in assay [5]; 5.83% in assay [8]; 22.1% in assay [9]; 8.3% in [11]. The Activity is given as 24% in [3] and 30.3% in assay [6]. Moreover, the IC50 in assay [12] was found to be 56.7 µM.
Regarding `Cc1ccc(C)c(OCCCC(C)(C)C(=O)O)c1` [GEMFIBROZIL], the Activity in [4] came to 37.1%; in assay [7], 36.1%; in [10], 39.1%.
Take `CCN(CC)CC1(CN(CC)CC)COc2ccc3c(C)cc(=O)oc3c2C1=O`: the inhibition in [1] worked out at 41.3%; in assay [5], 12.2%; in assay [8] it was 9.45%; in assay [9] it was 8.5%; in assay [11], 8.1%.
On to `Cc1cc(=O)oc2c3c(ccc12)OCC(CN1CCN(C)CC1)(CN1CCN(C)CC1)C3=O`, for which the inhibition was 22% in assay [1]; 10.2% in [5]; 13% in assay [8]; 6.4% in assay [9]; 12.5% in assay [11].
As for `CCOCC1(CN(CC)CC)COc2ccc3c(C)cc(=O)oc3c2C1=O` (stereo not drawn), the inhibition was 74.1% in assay [1] and 24.2% in assay [8]. The outcome in assay [4], in assay [7] and in assay [10] was Active. Moreover, the inhibition entry in [5], in [9] and in assay [11] was “inactive” in each case. In assay [12], this compound registered an IC50 of 90.4 µM.
As for `Cc1cc(=O)oc2c3c(ccc12)OCC(CN1CCN(c2ccccn2)CC1)(CN1CCN(c2ccccn2)CC1)C3=O`, the inhibition was 41.3% in assay [1]; 11% in [5]; 28% in assay [8]; 15.8% in [9]; 9.8% in assay [11].
For the compound `Cc1cc(=O)oc2c3c(ccc12)OCC(CN1CCOCC1)(CN1CCOCC1)C3=O`, the inhibition is 24.7% in assay [1]; 12.8% in [5]; 6.78% in assay [8]; 8.3% in assay [9]; 8.8% in [11].
On the same counts, the results for `Cc1cc(=O)oc2c3c(ccc12)OCC(CN1CCCC1)(CN1CCCC1)C3=O` are 29.8%, 15.2%, 8.28%, “inactive” and 8.2%.
Take `CCOCC1(CN2CCN(c3ccccn3)CC2)COc2ccc3c(C)cc(=O)oc3c2C1=O` (stereo not drawn): the inhibition in [1] worked out at 54.5%; in [5], 30.1%; in assay [8], 9.67%; in assay [9], 11.3%. Also, in [11], the inhibition entry is “inactive”. In addition, in assay [12], half-maximal inhibition (IC50) required 76.2 µM.
Consider `CCOCC1(CN2CCN(C)CC2)COc2ccc3c(C)cc(=O)oc3c2C1=O` (stereo not drawn), for which the inhibition was 70.3% in assay [1], 26.9% in [5], 17.4% in [8] and 7.9% in assay [11]. The Activity in assay [3] came to 18.7%; in assay [6] it was 32.5%. The result in assay [4], in assay [7] and in assay [10] was Active. Moreover, the inhibition result in assay [9] was “inactive”. The IC50 in [12] is 65.5 µM.
With `Cc1cc(=O)oc2c3c(ccc12)OCC(CO)(CN1CCCCC1)C3=O` (stereo not drawn), the results for the inhibition in assay [1], in assay [8] and in assay [9] were 64%, 7.36% and 37.3%, respectively. Also, the outcome in [4], in [7] and in assay [10] was Active. Besides, the inhibition entry in assay [5] and in assay [11] was “inactive” throughout. Besides, the IC50 in assay [12] turned out to be 62.1 µM.
Regarding `CCOCC1(CN2CCN(c3ccccc3)CC2)COc2ccc3c(C)cc(=O)oc3c2C1=O` (stereo not drawn), the inhibition in assay [1] stood at 62.3%; in assay [8], 31.7%; in assay [9] it was 16.2%. Also, the inhibition entry in assay [5] and in [11] was “inactive” throughout. Further, the midpoint of inhibition in assay [12], the IC50, lay at 70.6 µM.
For the compound `CCOCC1(CN2CCCC2)COc2ccc3c(C)cc(=O)oc3c2C1=O` (stereo not drawn), the inhibition amounted to 72.1% in assay [1]; 8.3% in [5]; 8.31% in [8]; 12% in assay [9]; 13.2% in assay [11]. In addition, the Activity in assay [3] is reported as 28.8%; in [6], 31.8%. This compound also displayed a concentration for half-maximal inhibition (IC50) in assay [12] of 82.7 µM.
With `CCOCC1(CN2CCOCC2)COc2ccc3c(C)cc(=O)oc3c2C1=O` (stereo not drawn), the inhibition in assay [1] stood at 92.2%; in assay [5] it was 8.4%; in assay [8], 12.4%. In addition, the Activity in [2] worked out at 38%; in [3], 35.5%; in assay [6], 35.5%; in [13], 21.1%. The outcome in assay [4], in assay [7] and in [10] was Active. Besides, the inhibition entry in assay [9] and in assay [11] was “inactive” throughout. In assay [12], this compound registered an IC50 of 24.5 µM.
As for `Cc1cc(=O)oc2c3c(ccc12)OCC(CN1CCN(c2ccccc2)CC1)(CN1CCN(c2ccccc2)CC1)C3=O`, the inhibition in assay [1] came out at 28.7%; in [5] it was 22.1%; in assay [8], 21.5%; in assay [9], 15.9%; in assay [11] it was 15.2%.

Values taken from ChEMBL document CHEMBL1154339, “Pyranocoumarins: a new class of anti-hyperglycemic and anti-dyslipidemic agents” (Bioorg Med Chem Lett, 2009).
